What was measured:
EPRAP/p105 interaction = target: T1, EPRAP/p105 interaction (Homo sapiens, UniProt P19838+Q9BSK4); assay: Co-IP of HA-tagged EPRAP (FEM1A) and p105; format: cell-based; details: up to 5 μM; cells overexpressing HA-tagged EPRAP (FEM1A) and p105
T1 construct: Addgene (p105 plasmid) #HG21487-NY; plasmid #23288
T1 sequence (Q9BSK4 1-669): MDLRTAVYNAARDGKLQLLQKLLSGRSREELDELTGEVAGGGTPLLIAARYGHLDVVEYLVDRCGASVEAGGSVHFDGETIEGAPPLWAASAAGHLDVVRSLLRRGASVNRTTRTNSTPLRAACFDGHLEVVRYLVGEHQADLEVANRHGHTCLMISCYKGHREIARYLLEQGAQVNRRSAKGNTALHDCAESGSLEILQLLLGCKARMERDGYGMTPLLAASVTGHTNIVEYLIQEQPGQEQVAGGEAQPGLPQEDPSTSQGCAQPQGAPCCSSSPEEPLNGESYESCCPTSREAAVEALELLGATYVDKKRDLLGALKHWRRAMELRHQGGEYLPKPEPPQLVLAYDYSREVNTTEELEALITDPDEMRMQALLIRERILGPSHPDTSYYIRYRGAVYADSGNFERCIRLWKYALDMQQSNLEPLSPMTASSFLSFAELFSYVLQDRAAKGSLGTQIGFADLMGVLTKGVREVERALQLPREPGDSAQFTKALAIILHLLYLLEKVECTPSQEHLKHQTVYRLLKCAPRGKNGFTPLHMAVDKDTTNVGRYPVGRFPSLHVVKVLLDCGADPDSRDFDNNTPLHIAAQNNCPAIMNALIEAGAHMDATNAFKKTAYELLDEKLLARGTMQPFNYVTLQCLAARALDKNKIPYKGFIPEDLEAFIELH
T1 sequence (P19838 1-968): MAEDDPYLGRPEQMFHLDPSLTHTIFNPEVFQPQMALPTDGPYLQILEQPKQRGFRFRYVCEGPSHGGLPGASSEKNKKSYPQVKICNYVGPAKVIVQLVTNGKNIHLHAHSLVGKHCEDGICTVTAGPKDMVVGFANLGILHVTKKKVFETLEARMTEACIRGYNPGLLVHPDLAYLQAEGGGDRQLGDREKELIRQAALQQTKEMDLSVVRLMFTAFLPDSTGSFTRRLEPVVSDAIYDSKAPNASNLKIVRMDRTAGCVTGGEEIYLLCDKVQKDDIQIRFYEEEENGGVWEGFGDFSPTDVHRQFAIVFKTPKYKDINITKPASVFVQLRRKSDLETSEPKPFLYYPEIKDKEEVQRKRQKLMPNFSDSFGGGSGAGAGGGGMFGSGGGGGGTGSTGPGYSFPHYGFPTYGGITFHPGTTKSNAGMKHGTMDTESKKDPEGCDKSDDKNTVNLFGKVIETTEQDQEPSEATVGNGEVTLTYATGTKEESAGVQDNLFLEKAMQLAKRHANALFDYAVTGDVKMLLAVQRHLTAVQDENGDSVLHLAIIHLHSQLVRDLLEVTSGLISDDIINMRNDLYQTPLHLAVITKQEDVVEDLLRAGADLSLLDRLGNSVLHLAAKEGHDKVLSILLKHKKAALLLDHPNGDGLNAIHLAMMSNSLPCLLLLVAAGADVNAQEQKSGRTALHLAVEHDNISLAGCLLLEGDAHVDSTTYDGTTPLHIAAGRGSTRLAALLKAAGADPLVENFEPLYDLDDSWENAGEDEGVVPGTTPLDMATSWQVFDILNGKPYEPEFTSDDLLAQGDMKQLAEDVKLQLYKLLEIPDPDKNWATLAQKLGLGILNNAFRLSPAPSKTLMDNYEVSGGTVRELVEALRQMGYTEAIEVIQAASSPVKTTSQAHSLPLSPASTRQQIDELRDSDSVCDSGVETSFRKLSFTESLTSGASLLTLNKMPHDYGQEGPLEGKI
Excerpt: Nuclear/cytoplasm protein extraction, co-Immunoprecipitation and immunoblotting NE-PER™ Nuclear and Cytoplasmic Extraction Reagents (#78835, ThermoFisher) were used for nuclear and cytoplasmic protein extraction. For Co-IP, cells were lysed using Cell Lysis Buffer (#9803, CST) supplemented with PMSF (#8553, CST), immunoprecipitated using Protein G Magnetic Beads (#7024, CST) and antibodies against HA (#AE008, ABclonal) or p50/p105(#13586, CST) following the manufacture's protocol. For immunoblot, protein extracts were resolved in SDS-PAGE gels and transferred to nitrocellulose membranes. Membranes were blocked by 5% BSA and incubated with the primary antibody at 4° C. overnight followed by incubation with fluorescence conjugated secondary antibody for 1 h at room temperature. Band intensity was collected with the Odyssey® CLx Imaging System and quantified using Image Studio™ Lite.

EP4 Gs-coupled receptor = target: T2, EP4 Gs-coupled receptor (Homo sapiens, UniProt P35408); assay: cAMP HTRF assay in 293T cells overexpressing EP4; format: cell-based; details: read-out: best-fit IC50, reduction of PGE2-induced recruitment of cAMP
T2 construct: expressed in transfected cells; host or cells: 293T cells
Description: FIG. 4. NO2—OA inhibits PGE2-dependent EP4 cAMP downstream signaling. (A) Three parameters nonlinear regression of EP4 global fitting dose-response curve. […] (B) HTRF assay of cAMP-Gs coupled receptor. […] (D) Representative figure of gelatin zymography indicating MMP 2/9 activity. BMDMs were incubated with L-902,688 (100 nM) plus vehicle, OA (2.5 μM) or NO2—OA (2.5 μM) for 12 h, and MMP 2&9 activity was measured by gelatin zymography. For (A) and (B), three or four parameters, global or separate fitting, constraints, and the significance of EC50 were determined in Prism. Data presented as mean±SEM. A p<0.05 was considered statistically significant.
Cells at 80% density were incubated on plates coated with transfection complex containing human EP4 receptors and a cAMP response element-regulated secreted alkaline phosphatase (SEAP) reporter. Activation of EP4 was quantified by adding a luminance-based alkaline phosphatase substrate and read in a chemiluminescence plate reader relative to the kit's standards. EP4 Inhibition assay was performed using cAMP-Gs HiRange kit (#62AM6PEB, Cisbio) following the manufacture's protocol and measured by Neo2 plate reader (BioTek, Winooski, Vt.). HTRF ratio (665/620) was converted to cAMP concentration using a cAMP standard.

T2 sequence (P35408 whole entry): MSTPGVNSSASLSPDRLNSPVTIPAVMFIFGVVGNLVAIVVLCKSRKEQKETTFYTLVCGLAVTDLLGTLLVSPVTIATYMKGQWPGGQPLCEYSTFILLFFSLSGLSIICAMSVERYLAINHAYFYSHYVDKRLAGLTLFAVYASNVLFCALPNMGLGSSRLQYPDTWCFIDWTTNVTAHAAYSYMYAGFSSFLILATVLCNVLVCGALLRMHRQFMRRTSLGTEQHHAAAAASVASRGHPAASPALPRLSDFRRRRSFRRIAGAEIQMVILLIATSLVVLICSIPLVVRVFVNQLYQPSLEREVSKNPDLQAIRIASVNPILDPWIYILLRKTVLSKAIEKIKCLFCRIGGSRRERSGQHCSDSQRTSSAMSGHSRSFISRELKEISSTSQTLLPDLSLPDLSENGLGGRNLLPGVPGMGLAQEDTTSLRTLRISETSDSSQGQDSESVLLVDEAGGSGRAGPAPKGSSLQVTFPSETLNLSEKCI

- effect on the EPRAP/p105 interaction (EPRAP/p105 interaction): no significant effect
- IC50 (EP4 Gs-coupled receptor): 2800 nM
Compound: CCCCCCCCC(=CCCCCCCCC(=O)O)[N+](=O)[O-] [NO2—OA, 10-nitro-octadec-9-enoic acid]

— patent publication US12728111B2, “Electrophilic compounds and electrophilic prodrugs for treating aneurysm” (University of Pittsburgh—Of the Commonwealth System of …, priority 2020, dated 2026)
